Assay results published in the NIST ThermoML archive (doi:10.1021/acs.jced.6b00181).

Assay: xn = mol fraction of the nth substance listed
Settings: Liquid, Other PVT measurement

C=CC [propene] + CCCCCC
Settings	mass density [kg/m3]
294.9 K, 1200 kPa, x1 = 0.9003	515.1
294.9 K, 1800 kPa, x1 = 0.9003	516.8
294.9 K, 2800 kPa, x1 = 0.9003	519
294.9 K, 3300 kPa, x1 = 0.9003	520.8
294.9 K, 4400 kPa, x1 = 0.9003	523.3
294.9 K, 10300 kPa, x1 = 0.9003	535.5
294.9 K, 17100 kPa, x1 = 0.9003	547.5
294.9 K, 24100 kPa, x1 = 0.9003	557.1
294.9 K, 30800 kPa, x1 = 0.9003	565.9
294.9 K, 37800 kPa, x1 = 0.9003	573.2
294.9 K, 44200 kPa, x1 = 0.9003	580.2
294.9 K, 51200 kPa, x1 = 0.9003	587.4
294.9 K, 55000 kPa, x1 = 0.9003	591.5
294.9 K, 58300 kPa, x1 = 0.9003	593.8
294.9 K, 67300 kPa, x1 = 0.9003	601.9
295 K, 1400 kPa, x1 = 0.606	568
295 K, 5200 kPa, x1 = 0.606	574.6
295 K, 6800 kPa, x1 = 0.606	577
295 K, 10300 kPa, x1 = 0.606	582.2
295 K, 17200 kPa, x1 = 0.606	592
295 K, 23900 kPa, x1 = 0.606	600
295 K, 30600 kPa, x1 = 0.606	606.9
295 K, 37500 kPa, x1 = 0.606	613.5
295 K, 44500 kPa, x1 = 0.606	619.4
295 K, 51100 kPa, x1 = 0.606	624.9
295 K, 57900 kPa, x1 = 0.606	630
295 K, 63100 kPa, x1 = 0.606	634.3
295 K, 66800 kPa, x1 = 0.606	636.7
295.3 K, 500 kPa, x1 = 0.4466	592.6
295.3 K, 700 kPa, x1 = 0.4466	594.3
295.3 K, 1400 kPa, x1 = 0.4466	595.1
295.3 K, 2100 kPa, x1 = 0.4466	596.8
295.3 K, 2800 kPa, x1 = 0.4466	597.6
295.3 K, 3700 kPa, x1 = 0.4466	598.9
295.3 K, 4800 kPa, x1 = 0.4466	600.6
295.3 K, 6800 kPa, x1 = 0.4466	603.6
295.3 K, 10200 kPa, x1 = 0.4466	607.9
295.3 K, 16900 kPa, x1 = 0.4466	615.3
295.3 K, 24100 kPa, x1 = 0.4466	622.5
295.3 K, 30900 kPa, x1 = 0.4466	629
295.3 K, 38100 kPa, x1 = 0.4466	634.6
295.3 K, 44500 kPa, x1 = 0.4466	640.3
295.3 K, 51600 kPa, x1 = 0.4466	646.2
295.3 K, 58300 kPa, x1 = 0.4466	651.1
295.3 K, 63000 kPa, x1 = 0.4466	654.6
295.3 K, 66500 kPa, x1 = 0.4466	657.1
295.6 K, 700 kPa, x1 = 0.1414	638.3
295.6 K, 1300 kPa, x1 = 0.1414	639.2
295.6 K, 1700 kPa, x1 = 0.8985	516.2
295.6 K, 1900 kPa, x1 = 0.8985	518.5
295.6 K, 2600 kPa, x1 = 0.8985	518.5
295.6 K, 3500 kPa, x1 = 0.1414	642
295.6 K, 3600 kPa, x1 = 0.8985	522.1
295.6 K, 4900 kPa, x1 = 0.8985	524.5
295.6 K, 7000 kPa, x1 = 0.8985	528.5
295.6 K, 8200 kPa, x1 = 0.1414	646.8
295.6 K, 8500 kPa, x1 = 0.8985	532.3
295.6 K, 10100 kPa, x1 = 0.8985	535.7
295.6 K, 10500 kPa, x1 = 0.8985	535.7
295.6 K, 10700 kPa, x1 = 0.1414	649.7
295.6 K, 13800 kPa, x1 = 0.8985	541.2
295.6 K, 14900 kPa, x1 = 0.1414	653.6
295.6 K, 16700 kPa, x1 = 0.8985	546.4
295.6 K, 17200 kPa, x1 = 0.8985	546.4
295.6 K, 20700 kPa, x1 = 0.1414	659.5
295.6 K, 23200 kPa, x1 = 0.8985	555.2
295.6 K, 24000 kPa, x1 = 0.1414	662.5
295.6 K, 27200 kPa, x1 = 0.1414	665.6
295.6 K, 29100 kPa, x1 = 0.8985	562.8
295.6 K, 30800 kPa, x1 = 0.1414	668.6
295.6 K, 34400 kPa, x1 = 0.8985	568.4
295.6 K, 37100 kPa, x1 = 0.1414	673.8
295.6 K, 38100 kPa, x1 = 0.8985	573.9
295.6 K, 41000 kPa, x1 = 0.8985	576.4
295.6 K, 42700 kPa, x1 = 0.1414	678.5
295.6 K, 44800 kPa, x1 = 0.8985	581.2
295.6 K, 47800 kPa, x1 = 0.1414	682.2
295.6 K, 48000 kPa, x1 = 0.1414	682.8
295.6 K, 48200 kPa, x1 = 0.1414	682.8
295.6 K, 48200 kPa, x1 = 0.8985	584.2
295.6 K, 48300 kPa, x1 = 0.1414	682.8
295.6 K, 51600 kPa, x1 = 0.8985	588
295.6 K, 52000 kPa, x1 = 0.1414	685.5
295.6 K, 54900 kPa, x1 = 0.8985	590.4
295.6 K, 55300 kPa, x1 = 0.1414	688.2
295.6 K, 55600 kPa, x1 = 0.1414	688.2
295.6 K, 58000 kPa, x1 = 0.1414	689.8
295.6 K, 58400 kPa, x1 = 0.8985	594.2
295.6 K, 61800 kPa, x1 = 0.8985	596.6
295.6 K, 61900 kPa, x1 = 0.1414	692.5
295.6 K, 66100 kPa, x1 = 0.1414	695.3
295.6 K, 66200 kPa, x1 = 0.1414	695.3
295.6 K, 67300 kPa, x1 = 0.8985	601.4
324.4 K, 900 kPa, x1 = 0.4466	560.3
324.4 K, 1400 kPa, x1 = 0.4466	561.7
324.4 K, 1900 kPa, x1 = 0.4466	562.5
324.4 K, 2100 kPa, x1 = 0.4466	563.2
324.4 K, 3400 kPa, x1 = 0.4466	565.5
324.4 K, 4900 kPa, x1 = 0.4466	568.9
324.4 K, 6800 kPa, x1 = 0.4466	571.9
324.4 K, 10200 kPa, x1 = 0.4466	577.8
324.4 K, 17200 kPa, x1 = 0.4466	588.5
324.4 K, 23800 kPa, x1 = 0.4466	597.6
324.4 K, 30700 kPa, x1 = 0.4466	606.1
324.4 K, 37800 kPa, x1 = 0.4466	614
324.4 K, 44700 kPa, x1 = 0.4466	620.3
324.4 K, 51400 kPa, x1 = 0.4466	626.2
324.4 K, 58300 kPa, x1 = 0.4466	631.8
324.4 K, 63700 kPa, x1 = 0.4466	636
324.4 K, 67500 kPa, x1 = 0.4466	638.9
324.6 K, 700 kPa, x1 = 0.1414	611.8
324.6 K, 1200 kPa, x1 = 0.1414	612.7
324.6 K, 1300 kPa, x1 = 0.606	533.2
324.6 K, 1800 kPa, x1 = 0.606	534.5
324.6 K, 1900 kPa, x1 = 0.1414	614
324.6 K, 2500 kPa, x1 = 0.606	536.2
324.6 K, 3400 kPa, x1 = 0.606	538.3
324.6 K, 3600 kPa, x1 = 0.1414	616.6
324.6 K, 5000 kPa, x1 = 0.1414	618.8
324.6 K, 5300 kPa, x1 = 0.606	542.5
324.6 K, 6800 kPa, x1 = 0.606	545.6
324.6 K, 7100 kPa, x1 = 0.1414	621.9
324.6 K, 8900 kPa, x1 = 0.1414	624.1
324.6 K, 9600 kPa, x1 = 0.1414	625.5
324.6 K, 10300 kPa, x1 = 0.1414	625.9
324.6 K, 10300 kPa, x1 = 0.606	552.4
324.6 K, 12300 kPa, x1 = 0.1414	628.6
324.6 K, 13600 kPa, x1 = 0.1414	630
324.6 K, 17100 kPa, x1 = 0.1414	634.1
324.6 K, 17400 kPa, x1 = 0.606	564.6
324.6 K, 19700 kPa, x1 = 0.1414	637.3
324.6 K, 23900 kPa, x1 = 0.606	573.8
324.6 K, 24100 kPa, x1 = 0.1414	642
324.6 K, 27400 kPa, x1 = 0.1414	644.9
324.6 K, 30700 kPa, x1 = 0.1414	648.2
324.6 K, 30700 kPa, x1 = 0.606	583.4
324.6 K, 34300 kPa, x1 = 0.1414	651.6
324.6 K, 37500 kPa, x1 = 0.1414	654.6
324.6 K, 37900 kPa, x1 = 0.606	592.4
324.6 K, 44300 kPa, x1 = 0.1414	660.5
324.6 K, 44400 kPa, x1 = 0.606	599.1
324.6 K, 47800 kPa, x1 = 0.1414	663.5
324.6 K, 51300 kPa, x1 = 0.1414	666.6
324.6 K, 51400 kPa, x1 = 0.606	606.4
324.6 K, 55200 kPa, x1 = 0.1414	669.7
324.6 K, 58100 kPa, x1 = 0.606	612.2
324.6 K, 58400 kPa, x1 = 0.1414	672.2
324.6 K, 62700 kPa, x1 = 0.1414	675.4
324.6 K, 63000 kPa, x1 = 0.606	616.2
324.6 K, 66500 kPa, x1 = 0.1414	678.5
324.6 K, 67200 kPa, x1 = 0.606	619.4
325.1 K, 2100 kPa, x1 = 0.9003	470.3
325.1 K, 2800 kPa, x1 = 0.9003	473.5
325.1 K, 3700 kPa, x1 = 0.9003	476.8
325.1 K, 7000 kPa, x1 = 0.9003	489.5
325.1 K, 10400 kPa, x1 = 0.9003	499.8
325.1 K, 16500 kPa, x1 = 0.9003	515.1
325.1 K, 24000 kPa, x1 = 0.9003	530.6
325.1 K, 30900 kPa, x1 = 0.9003	542.4
325.1 K, 37500 kPa, x1 = 0.9003	551.5
325.1 K, 44500 kPa, x1 = 0.9003	559.6
325.1 K, 51500 kPa, x1 = 0.9003	567.6
325.1 K, 58300 kPa, x1 = 0.9003	574.5
325.1 K, 63700 kPa, x1 = 0.9003	580.2
325.1 K, 67200 kPa, x1 = 0.9003	583.3
325.5 K, 2400 kPa, x1 = 0.8985	471.9
325.5 K, 2800 kPa, x1 = 0.8985	474.2
325.5 K, 3500 kPa, x1 = 0.8985	476.7
325.5 K, 4700 kPa, x1 = 0.8985	481.2
